The source made the active and inactive calls. Bounds are passed on as bounds.

In test [1] the target is Tyrosine-protein kinase FRK (Homo sapiens, UniProt P42685). In kind it is functional.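 Note: FRK tested as one member of a kinome panel.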
The target in test [2] is Fibroblast growth factor receptor 3 (Homo sapiens, UniProt P22607). It is filed as functional.
Test [3] deals with Serine/threonine-protein kinase N2 (Homo sapiens, UniProt Q16513). In kind it is functional.
A further test deals with Wee1-like protein kinase (Homo sapiens, UniProt P30291). Description: Navigating the Kinome. Panel member name: WEE1. It is filed as functional.
Test [4] addresses Tyrosine-protein kinase Blk (Homo sapiens, UniProt P51451). In kind it is functional.
The target in test [5] is STE20-like serine/threonine-protein kinase (Homo sapiens, UniProt Q9H2G2). It is filed as functional.
In test [6] the target is Mitogen-activated protein kinase kinase kinase kinase 4 (Homo sapiens, UniProt O95819). In kind it is functional.
The target of test [7] is High affinity nerve growth factor receptor (Homo sapiens, UniProt P04629). It is filed as functional.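 Note: NTRK1 tested as one member of a kinome-wide profiling panel.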
Test [8] concerns the target Serine/threonine-protein kinase PLK4 (Homo sapiens, UniProt O00444). It is filed as functional.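 Note: PLK4 measured as one member of a kinome-wide kinase profiling panel.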
Test [9] has as its target Tyrosine-protein kinase Fyn (Homo sapiens, UniProt P06241). It is filed as functional.
The subject of another test is HT-1080. In words: HT1080 cell viability loss – fluorescence readout (AID 620). It is filed as functional, cell-based. Conditions: Homo sapiens.
The nature of test [10]: HEK-293T viability loss, compound-treated – cell-based, uHTS hits, cytotoxicity control for B/T-cell NF-kB inhibitor project, dose response (AID 489019).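 Note: IC50 reflects cytotoxicity as loss of cell viability.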 It is filed as functional.
For test [11], the target named is T1, Sentrin-specific protease 7 (Homo sapiens, UniProt Q9BQF6).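 Note: Luminescence-based dose-response confirmation of ultra-high-throughput screening hits, measuring inhibition of SENP7.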
T1 sequence (Q9BQF6 whole entry): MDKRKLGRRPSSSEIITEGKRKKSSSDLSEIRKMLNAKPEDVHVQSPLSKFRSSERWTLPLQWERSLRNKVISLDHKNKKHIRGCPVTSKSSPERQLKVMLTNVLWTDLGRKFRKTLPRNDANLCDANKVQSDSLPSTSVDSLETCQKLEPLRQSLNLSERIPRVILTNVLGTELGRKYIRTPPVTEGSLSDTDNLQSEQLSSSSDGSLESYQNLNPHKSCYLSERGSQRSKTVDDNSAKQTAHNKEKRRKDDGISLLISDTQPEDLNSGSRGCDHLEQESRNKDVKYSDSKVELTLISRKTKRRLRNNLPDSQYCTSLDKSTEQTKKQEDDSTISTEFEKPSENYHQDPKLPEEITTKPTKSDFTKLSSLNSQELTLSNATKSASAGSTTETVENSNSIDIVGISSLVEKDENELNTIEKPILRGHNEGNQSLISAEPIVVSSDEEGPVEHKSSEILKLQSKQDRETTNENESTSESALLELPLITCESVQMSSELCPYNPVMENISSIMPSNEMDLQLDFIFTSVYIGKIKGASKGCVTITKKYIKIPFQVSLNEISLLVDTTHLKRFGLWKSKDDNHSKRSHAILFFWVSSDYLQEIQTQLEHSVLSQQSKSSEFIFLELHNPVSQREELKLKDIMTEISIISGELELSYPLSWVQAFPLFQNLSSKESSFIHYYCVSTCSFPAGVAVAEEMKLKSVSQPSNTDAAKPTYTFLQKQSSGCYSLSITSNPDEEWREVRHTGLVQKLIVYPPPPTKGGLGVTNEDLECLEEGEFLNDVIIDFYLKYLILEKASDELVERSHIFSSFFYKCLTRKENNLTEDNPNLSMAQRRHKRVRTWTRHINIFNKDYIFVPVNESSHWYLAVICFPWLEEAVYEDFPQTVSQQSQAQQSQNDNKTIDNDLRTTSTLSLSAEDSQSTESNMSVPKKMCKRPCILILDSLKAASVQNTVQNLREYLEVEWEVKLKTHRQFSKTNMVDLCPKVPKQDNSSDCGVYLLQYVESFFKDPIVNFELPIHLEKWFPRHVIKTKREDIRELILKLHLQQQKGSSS
It is filed as functional.

Test [12] addresses Luciferin 4-monooxygenase (Photinus pyralis, UniProt P08659). In words: Counter Screen for Luciferase-based Assay Positives. [Related pubchem assays: 620, 618, 411 ].
Another test addresses T2, Cytochrome P450 1A2 (Homo sapiens, UniProt P05177).
T2 sequence (P05177 whole entry): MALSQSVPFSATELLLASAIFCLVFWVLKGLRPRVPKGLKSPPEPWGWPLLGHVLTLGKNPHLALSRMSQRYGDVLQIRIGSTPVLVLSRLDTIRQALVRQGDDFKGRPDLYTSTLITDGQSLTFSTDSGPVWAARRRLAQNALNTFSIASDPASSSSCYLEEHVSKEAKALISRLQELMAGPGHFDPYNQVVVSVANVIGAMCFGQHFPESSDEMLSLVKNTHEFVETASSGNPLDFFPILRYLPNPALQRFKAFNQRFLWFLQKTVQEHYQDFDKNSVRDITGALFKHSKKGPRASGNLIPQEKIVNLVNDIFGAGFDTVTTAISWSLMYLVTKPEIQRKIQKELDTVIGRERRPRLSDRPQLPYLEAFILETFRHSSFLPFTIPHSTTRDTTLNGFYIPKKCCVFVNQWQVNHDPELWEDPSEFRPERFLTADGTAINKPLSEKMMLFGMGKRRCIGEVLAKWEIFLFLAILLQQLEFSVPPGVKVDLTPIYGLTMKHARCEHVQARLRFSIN

Test [13] can be described thus: Luminescence-based dose response cell-based high throughput screening assay for cytotoxic compounds using the IEC-6 intestinal epithelial cell line. [Related pubchem assays: 1858 (Summary AID.), 1825 (Counterscreen.), 1907 (Confirmation screen.)]. In kind it is functional.
For a further test, the target named is T3, Cysteine protease ATG4B (Homo sapiens, UniProt Q9Y4P1).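 Note: Fluorescence-based dose-response confirmation assay measuring inhibition of ATG4B activity.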
T3 sequence (Q9Y4P1 whole entry): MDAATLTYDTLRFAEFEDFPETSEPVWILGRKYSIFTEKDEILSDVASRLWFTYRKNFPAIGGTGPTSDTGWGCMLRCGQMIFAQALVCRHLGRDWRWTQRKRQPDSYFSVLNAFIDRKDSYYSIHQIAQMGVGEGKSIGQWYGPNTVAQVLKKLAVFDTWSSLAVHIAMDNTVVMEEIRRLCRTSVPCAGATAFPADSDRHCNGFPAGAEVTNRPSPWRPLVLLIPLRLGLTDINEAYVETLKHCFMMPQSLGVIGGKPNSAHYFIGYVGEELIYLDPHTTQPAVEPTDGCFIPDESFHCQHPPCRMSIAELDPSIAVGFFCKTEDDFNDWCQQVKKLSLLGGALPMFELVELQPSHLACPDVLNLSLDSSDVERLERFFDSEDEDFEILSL
In kind it is functional.

Test [14] can be described thus: reduced cellular PGC1a acetyl-lysine signal – cell-based, cherry-picked samples, dose response (AID 720514).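 Note: potency may reflect raised or lowered acetylation signal.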 In kind it is functional.

Sequence of Serine/threonine-protein kinase PLK4 (O00444 whole entry): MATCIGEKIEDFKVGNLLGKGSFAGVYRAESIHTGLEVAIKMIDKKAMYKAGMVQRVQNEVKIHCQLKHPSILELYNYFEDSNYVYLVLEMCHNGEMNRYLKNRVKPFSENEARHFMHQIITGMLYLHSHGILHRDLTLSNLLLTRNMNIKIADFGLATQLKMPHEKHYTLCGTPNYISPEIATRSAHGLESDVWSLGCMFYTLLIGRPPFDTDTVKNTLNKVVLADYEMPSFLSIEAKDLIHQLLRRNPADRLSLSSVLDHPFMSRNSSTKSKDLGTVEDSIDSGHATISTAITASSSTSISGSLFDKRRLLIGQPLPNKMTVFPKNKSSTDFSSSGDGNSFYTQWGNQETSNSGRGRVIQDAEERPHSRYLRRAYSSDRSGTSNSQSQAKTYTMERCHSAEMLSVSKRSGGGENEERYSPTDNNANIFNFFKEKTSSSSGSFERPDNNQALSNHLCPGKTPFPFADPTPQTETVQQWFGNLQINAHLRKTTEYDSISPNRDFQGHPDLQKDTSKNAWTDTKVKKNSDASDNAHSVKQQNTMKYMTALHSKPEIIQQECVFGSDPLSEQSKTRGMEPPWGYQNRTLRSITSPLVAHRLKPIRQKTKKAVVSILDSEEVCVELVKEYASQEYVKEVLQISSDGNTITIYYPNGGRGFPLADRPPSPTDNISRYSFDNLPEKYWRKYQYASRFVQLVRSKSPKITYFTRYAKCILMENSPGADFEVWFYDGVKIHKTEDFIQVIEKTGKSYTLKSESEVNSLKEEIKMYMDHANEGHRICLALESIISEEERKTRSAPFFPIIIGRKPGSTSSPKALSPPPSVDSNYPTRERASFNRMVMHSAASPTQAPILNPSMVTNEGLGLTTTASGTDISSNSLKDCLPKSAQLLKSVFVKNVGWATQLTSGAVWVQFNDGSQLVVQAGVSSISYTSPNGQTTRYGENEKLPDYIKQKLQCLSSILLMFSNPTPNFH
Sequence of High affinity nerve growth factor receptor (P04629 whole entry): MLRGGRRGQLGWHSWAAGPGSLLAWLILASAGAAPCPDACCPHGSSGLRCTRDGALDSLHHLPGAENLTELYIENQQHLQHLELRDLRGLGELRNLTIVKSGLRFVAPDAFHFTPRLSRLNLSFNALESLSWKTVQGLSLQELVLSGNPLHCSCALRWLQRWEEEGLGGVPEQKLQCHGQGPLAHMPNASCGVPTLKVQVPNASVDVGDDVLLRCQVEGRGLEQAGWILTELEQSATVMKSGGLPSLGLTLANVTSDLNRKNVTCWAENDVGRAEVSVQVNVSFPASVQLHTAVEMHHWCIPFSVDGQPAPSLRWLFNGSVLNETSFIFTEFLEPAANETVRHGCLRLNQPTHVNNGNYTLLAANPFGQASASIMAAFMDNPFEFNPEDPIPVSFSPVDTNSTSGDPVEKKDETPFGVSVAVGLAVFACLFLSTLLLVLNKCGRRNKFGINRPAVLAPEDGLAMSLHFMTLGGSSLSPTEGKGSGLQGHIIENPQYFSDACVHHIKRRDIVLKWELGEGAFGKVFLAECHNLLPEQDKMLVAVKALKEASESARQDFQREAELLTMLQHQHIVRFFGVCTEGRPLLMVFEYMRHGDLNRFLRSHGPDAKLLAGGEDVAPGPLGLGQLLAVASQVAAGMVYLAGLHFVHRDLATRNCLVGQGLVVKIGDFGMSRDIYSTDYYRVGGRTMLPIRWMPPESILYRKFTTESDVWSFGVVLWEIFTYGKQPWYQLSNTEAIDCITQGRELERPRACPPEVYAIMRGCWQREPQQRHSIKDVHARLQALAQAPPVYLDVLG
Sequence of Tyrosine-protein kinase Blk (P51451 whole entry): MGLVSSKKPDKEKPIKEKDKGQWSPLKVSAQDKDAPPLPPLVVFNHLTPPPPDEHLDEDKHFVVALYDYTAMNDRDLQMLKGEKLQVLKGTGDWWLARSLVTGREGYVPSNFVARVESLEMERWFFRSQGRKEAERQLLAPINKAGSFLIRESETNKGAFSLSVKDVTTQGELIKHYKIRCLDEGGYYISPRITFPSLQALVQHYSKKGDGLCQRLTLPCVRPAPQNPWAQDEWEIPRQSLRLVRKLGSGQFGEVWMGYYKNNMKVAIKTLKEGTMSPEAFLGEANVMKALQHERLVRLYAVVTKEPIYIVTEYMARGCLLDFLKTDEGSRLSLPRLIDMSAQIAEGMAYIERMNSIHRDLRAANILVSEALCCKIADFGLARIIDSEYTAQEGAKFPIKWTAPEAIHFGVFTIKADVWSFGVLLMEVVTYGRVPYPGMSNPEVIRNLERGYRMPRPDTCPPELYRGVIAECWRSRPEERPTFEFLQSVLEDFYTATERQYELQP
Sequence of Fibroblast growth factor receptor 3 (P22607 whole entry): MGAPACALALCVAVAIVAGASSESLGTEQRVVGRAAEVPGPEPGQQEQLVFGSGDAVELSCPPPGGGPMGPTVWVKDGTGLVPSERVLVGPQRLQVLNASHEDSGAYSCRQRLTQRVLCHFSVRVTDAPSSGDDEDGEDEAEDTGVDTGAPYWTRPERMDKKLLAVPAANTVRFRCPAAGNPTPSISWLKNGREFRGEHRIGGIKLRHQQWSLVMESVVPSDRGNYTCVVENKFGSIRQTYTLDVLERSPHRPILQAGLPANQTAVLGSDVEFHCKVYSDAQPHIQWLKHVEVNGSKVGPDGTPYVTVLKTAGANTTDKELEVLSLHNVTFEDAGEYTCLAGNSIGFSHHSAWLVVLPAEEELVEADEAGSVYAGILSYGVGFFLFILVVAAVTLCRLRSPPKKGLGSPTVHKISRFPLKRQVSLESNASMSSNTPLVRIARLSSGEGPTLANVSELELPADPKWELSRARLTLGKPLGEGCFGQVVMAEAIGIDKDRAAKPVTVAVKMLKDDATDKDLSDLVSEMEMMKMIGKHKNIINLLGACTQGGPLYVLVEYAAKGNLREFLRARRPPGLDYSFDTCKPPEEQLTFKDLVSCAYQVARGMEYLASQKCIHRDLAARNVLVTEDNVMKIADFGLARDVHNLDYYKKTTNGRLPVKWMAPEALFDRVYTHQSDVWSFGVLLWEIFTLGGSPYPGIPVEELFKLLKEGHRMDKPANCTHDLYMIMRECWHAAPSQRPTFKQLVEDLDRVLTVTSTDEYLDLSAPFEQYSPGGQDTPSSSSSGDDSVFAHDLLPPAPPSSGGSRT
Sequence of Luciferin 4-monooxygenase (P08659 whole entry): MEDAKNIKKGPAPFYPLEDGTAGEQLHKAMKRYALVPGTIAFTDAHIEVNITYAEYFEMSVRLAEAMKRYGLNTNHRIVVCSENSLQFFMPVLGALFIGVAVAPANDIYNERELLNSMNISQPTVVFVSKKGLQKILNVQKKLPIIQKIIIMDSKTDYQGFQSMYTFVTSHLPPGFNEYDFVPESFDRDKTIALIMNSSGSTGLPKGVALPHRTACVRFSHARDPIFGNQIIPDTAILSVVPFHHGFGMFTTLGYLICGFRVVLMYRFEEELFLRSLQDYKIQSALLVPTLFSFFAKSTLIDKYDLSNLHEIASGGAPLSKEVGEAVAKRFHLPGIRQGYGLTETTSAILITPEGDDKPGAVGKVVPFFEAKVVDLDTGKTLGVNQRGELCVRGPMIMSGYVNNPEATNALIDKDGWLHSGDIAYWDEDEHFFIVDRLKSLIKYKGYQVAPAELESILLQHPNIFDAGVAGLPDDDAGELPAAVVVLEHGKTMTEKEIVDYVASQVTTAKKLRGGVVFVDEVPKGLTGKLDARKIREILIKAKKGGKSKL
Sequence of Tyrosine-protein kinase Fyn (P06241 whole entry): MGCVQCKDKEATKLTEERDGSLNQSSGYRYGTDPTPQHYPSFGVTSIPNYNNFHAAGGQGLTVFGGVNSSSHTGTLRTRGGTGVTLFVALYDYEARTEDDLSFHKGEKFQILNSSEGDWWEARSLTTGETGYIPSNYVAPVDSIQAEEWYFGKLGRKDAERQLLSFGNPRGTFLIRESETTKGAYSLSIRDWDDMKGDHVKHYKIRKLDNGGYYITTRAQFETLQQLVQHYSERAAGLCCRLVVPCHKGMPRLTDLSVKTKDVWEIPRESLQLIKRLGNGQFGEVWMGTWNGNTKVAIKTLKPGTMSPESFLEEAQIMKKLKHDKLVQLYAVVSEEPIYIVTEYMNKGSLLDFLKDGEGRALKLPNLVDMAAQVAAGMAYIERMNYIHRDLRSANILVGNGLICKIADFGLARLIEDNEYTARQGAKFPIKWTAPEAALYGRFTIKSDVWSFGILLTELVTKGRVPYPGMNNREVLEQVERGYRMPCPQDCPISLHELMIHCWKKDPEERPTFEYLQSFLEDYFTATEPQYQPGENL
Sequence of Wee1-like protein kinase (P30291 whole entry): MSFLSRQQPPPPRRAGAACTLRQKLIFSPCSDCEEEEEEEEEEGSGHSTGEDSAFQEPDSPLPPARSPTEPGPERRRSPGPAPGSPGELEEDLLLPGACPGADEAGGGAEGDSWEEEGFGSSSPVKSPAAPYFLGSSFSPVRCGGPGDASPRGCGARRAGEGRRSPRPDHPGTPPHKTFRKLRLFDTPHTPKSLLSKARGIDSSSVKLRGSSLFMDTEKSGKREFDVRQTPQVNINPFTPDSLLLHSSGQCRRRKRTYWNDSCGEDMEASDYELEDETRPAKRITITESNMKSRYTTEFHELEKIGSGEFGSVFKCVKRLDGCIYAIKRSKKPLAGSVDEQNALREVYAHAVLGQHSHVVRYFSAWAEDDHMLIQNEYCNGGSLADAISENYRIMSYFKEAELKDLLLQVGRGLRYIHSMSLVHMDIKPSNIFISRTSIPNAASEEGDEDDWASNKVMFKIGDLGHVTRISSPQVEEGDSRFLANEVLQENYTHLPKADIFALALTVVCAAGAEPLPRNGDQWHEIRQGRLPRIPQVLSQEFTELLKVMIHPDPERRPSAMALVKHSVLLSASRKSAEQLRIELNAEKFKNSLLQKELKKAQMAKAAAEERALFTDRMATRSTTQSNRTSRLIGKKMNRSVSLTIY

Consider `COc1cc2c(cc1Nc1nc(Nc3cccc(F)c3C(N)=O)c3cc[nH]c3n1)N(C(=O)CN(C)C)CC2`, for which the Ki in test [1] was > 2.51 µM (inactive); in test [2] it was > 2 µM (inactive); in test [3], > 7.94 µM (inactive); at Wee1-like protein kinase it was > 2.51 µM (inactive); in [4], > 1.58 µM (inactive); in [5], > 10 µM (inactive). Further, the Ki in test [6] is > 5.01 µM (inactive); in [7], > 3.16 µM (inactive); in test [8], 2 µM (active); in [9], > 6.31 µM (inactive).
As for `CC(C)c1ccc(-c2nnn(CCC(=O)O)n2)cc1`, the EC50 was > 50 µM (not active) in the test with HT-1080 and 4.77 µM (active) in test [12]. For the same compound, the IC50 is > 80 µM (inactive) in test [10] and 7.22 µM (active) in [11]. In addition, the AC50 at Cytochrome P450 1A2 is 12.6 µM (inconclusive).
Take `CCn1nc(/C=C/c2ccccc2)nc2c(=O)n(C)c(=O)nc1-2`: the IC50 in test [13] was 0.335 µM (active); at Cysteine protease ATG4B it was 0.653 µM (active). The AC50 in test [14] is 2.87 µM (active).

The values above are taken from ChEMBL document CHEMBL1201862, “PubChem BioAssay data set” (2004).
